This is an account of results in US12421226B2, “Heteroaryl compounds as necrosis inhibitors, composition and method using the same” (Accro Bioscience (HK), priority 2019, dated 2025).

Counter-ions that a name gives are not always drawn.

The test system of one test is HT29 cells. The test is described as follows: Necroptosis inhibition in HT29 cell assay (TNF-α/Smac mimetic/z-VAD induced, cell viability). The test is classed as cell-based. Particulars: Homo sapiens, HT-29, 1 h pre-treatment with compound, then TNF-α 40 ng/mL + Smac mimetic 100 nM + z-VAD 20 μM for 48 hours. As for the experimental part:
1. Compounds Tested for Necroptosis Inhibition Activities in HT29 Cell Assay
For this assay, HT29 cells were added to 96-well plates and then were pre-treated with 10 μM of the test compound for one hour. Then the cells were treated with tumor necrosis factor alpha (TNF-α, 40 ng/mL), Smacmimetic (cIAP inhibitor) (100 nM) and z-VAD (capase inhibitor, from calbiochem) (20 μM) for 48 hours, and the viability of cells was quantified. DMSO pretreatment group was used as negative controls, Nec-1 (known necroptosis inhibitor, from Biomol) pretreatment group was used as positive controls.

Test [1] has as its system L929 mouse skin fibroblast cells. The test is described as follows: Necroptosis inhibition in L929 cell assay (TNF-α/z-VAD induced, cell viability by ATP levels). The test is classed as cell-based. Particulars: Mus musculus, 1 h pre-treatment with compound, then TNF-α 40 ng/mL + z-VAD 20 μM for 48 hours. The procedure: 2. Compounds Tested for Necroptosis Inhibition Activities in L929 Cell Assay
Mouse L929 mouse skin fibroblast cells were added to 96-well plates and then were pre-treated with 10 μM of the test compound for one hour. Then the cells were treated with TNF-α (40 ng/mL, lab-made) and z-VAD (capase inhibitor, from calbiochem) (20 μM) for 48 hours, and the viability of cells was quantified by detecting adenosine triphosphate (ATP) levels. DMSO pretreatment group was used as negative controls, Nec-1 (known necroptosis inhibitor, from Biomol) pretreatment group was used as positive controls.

Consider `O=C(NC1CCC(F)(F)CC1)c1csc2ncc(-c3ccc4nc(NC(=O)C5CC5)sc4c3)cc12` [Compound C38, 5-[2-(cyclopropanecarbonylamino)-1,3-benzothiazol-6-yl]-N-(4,4-difluorocyclohexyl)thieno[2,3-b]pyridine-3-carboxamide], for which the IC50 in the test with HT29 cells was found to be 1.8 nM.

With `CC(=O)Nc1nc2ccc(-c3cnc4scc(C(=O)NC5CCCCC5)c4c3)cc2s1` [Compound C19, 5-(2-acetamido-1,3-benzothiazol-6-yl)-N-cyclohexyl-thieno[2,3-b]pyridine-3-carboxamide], the IC50 in the test on HT29 cells was determined as 11 nM. As for `O=C(NC1CCCCC1)c1nsc2ncc(-c3ccc4nc(NC(=O)C5CC5)sc4c3)cc12` [Compound C23, N-cyclohexyl-5-[2-(cyclopropanecarbonylamino)-1,3-benzothiazol-6-yl]isothiazolo[5,4-b]pyridine-3-carboxamide], the figures for the IC50 (in the test with HT29 cells; in test [1]) were 5.3 nM and 1.7 nM, respectively.

In the case of `O=C(Nc1nc2ccc(-c3cnc4cnn(C(=O)OC5CCOCC5)c4c3)cc2s1)C1CC1` [Compound C11, tetrahydropyran-4-yl 6-[2-(cyclopropanecarbonylamino)-1,3-benzothiazol-6-yl]pyrazolo[4,3-b]pyridine-1-carboxylate], in the test with HT29 cells, the half-inhibitory concentration (IC50) is 4100 nM. On to `CN1CCC(NC(=O)c2nsc3ncc(-c4ccc5nc(NC(=O)C6CC6)sc5c4)cc23)CC1` [Compound C42, 5-(2-(cyclopropanecarboxamido)benzo[d]thiazol-6-yl)-N-(1-methylpiperidin-4-yl)isothiazolo[5,4-b]pyridine-3-carboxamide], for which the IC50 in the test with HT29 cells stood at 3000 nM; in test [1] it was 321 nM. On to `CC(=O)Nc1nc2ccc(-c3cnc4ccn(C(=O)OC5CCCCC5)c4c3)cc2s1` [Compound C1, cyclohexyl 6-(2-acetamido-1,3-benzothiazol-6-yl)pyrrolo[3,2-b]pyridine-1-carboxylate], for which the 50% inhibitory concentration (IC50) in the test with HT29 cells worked out at 43 nM. On the same count and under the same terms, with `O=C(Nc1nc2ccc(-c3cnc4ccn(C(=O)CC5CCCCC5)c4c3)cc2s1)C1CC1` [Compound C25, N-[6-[1-(2-cyclohexylacetyl)pyrrolo[3,2-b]pyridin-6-yl]-1,3-benzothiazol-2-yl]cyclopropanecarboxamide] the figure was 29 nM. On the same count and under the same terms, with `CC(=O)Nc1nc2ccc(-c3cnc4ncn(C(=O)OC5CCCCC5)c4c3)cc2s1` [Compound C2, cyclohexyl 6-(2-acetamido-1,3-benzothiazol-6-yl)imidazo[4,5-b]pyridine-1-carboxylate] the figure was 11000 nM; with `CCC(CC)NC(=O)c1nsc2ncc(-c3ccc4nc(NC(=O)C5CC5)sc4c3)cc12` [Compound C31, 5-[2-(cyclopropanecarbonylamino)-1,3-benzothiazol-6-yl]-N-(1-ethylpropyl)isothiazolo[5,4-b]pyridine-3-carboxamide], 11 nM. As to `CNC(=O)Nc1nc2ccc(-c3cnc4ccn(C(=O)OC5CCOCC5)c4c3)cc2s1` [Compound C7, tetrahydropyran-4-yl 6-[2-(methylcarbamoylamino)-1,3-benzothiazol-6-yl]pyrrolo[3,2-b]pyridine-1-carboxylate], the half-inhibitory concentration (IC50) in the test with HT29 cells turned out to be 32 nM. Consider `CCOC(=O)Nc1nc2ccc(-c3cnc4snc(C(=O)NC5CCCCC5)c4c3)cc2s1` [Compound C29, ethyl N-[6-[3-(cyclohexylcarbamoyl)isothiazolo[5,4-b]pyridin-5-yl]-1,3-benzothiazol-2-yl]carbamate], for which, in the test with HT29 cells, the IC50 came out at 3.1 nM. Take `O=C(Nc1nc2ccc(-c3cnc4ccn(C(=O)OC5CCCCC5)c4c3)cc2s1)C1CC1` [Compound C15]: the IC50 in the test with HT29 cells was determined as 7 nM.

As for `CC(=O)Nc1nc2ccc(-c3cnc4snc(C(=O)NC5CCCCC5)c4c3)cc2s1` [Compound C22, 5-(2-acetamido-1,3-benzothiazol-6-yl)-N-cyclohexyl-isothiazolo[5,4-b]pyridine-3-carboxamide], in the test on HT29 cells, the concentration for half-maximal inhibition (IC50) was found to be 35 nM. On to `O=C(NC1CCOCC1)c1n[nH]c2ncc(-c3ccc4nc(NC(=O)C5CC5)sc4c3)cc12` [Compound C10, 5-[2-(cyclopropanecarbonylamino)-1,3-benzothiazol-6-yl]-N-tetrahydropyran-4-yl-1H-pyrazolo[3,4-b]pyridine-3-carboxamide], for which, in the test with HT29 cells, the IC50 was 12000 nM. The same measure, in the same setting: with `CNC(=O)Nc1nc2ccc(-c3cnc4ccn(C(=O)OC5CCCCC5)c4c3)cc2s1` [Compound C16, cyclohexyl 6-[2-(methylcarbamoylamino)-1,3-benzothiazol-6-yl]pyrrolo[3,2-b]pyridine-1-carboxylate] the figure was 25 nM; with `CNCC(C)NC(=O)c1csc2ncc(-c3ccc4nc(NC(=O)C5CC5)sc4c3)cc12` (stereo not drawn) [Compound C28, 5-[2-(cyclopropanecarbonylamino)-1,3-benzothiazol-6-yl]-N-[1-methyl-2-(methylamino)ethyl]thieno[2,3-b]pyridine-3-carboxamide], 380 nM. Same read-out and setting: with `CCC(CC)OC(=O)n1ccc2ncc(-c3ccc4nc(NC(=O)C5CC5)sc4c3)cc21` [Compound C24, 1-ethylpropyl 6-[2-(cyclopropanecarbonylamino)-1,3-benzothiazol-6-yl]pyrrolo[3,2-b]pyridine-1-carboxylate] the figure was 33 nM; with `CNC(=O)Nc1nc2ccc(-c3cnc4snc(C(=O)NC5CCCCC5)c4c3)cc2s1` [Compound C27, N-cyclohexyl-5-[2-(methylcarbamoylamino)-1,3-benzothiazol-6-yl]isothiazolo[5,4-b]pyridine-3-carboxamide], 33 nM; with `O=C(Nc1cn2cc(-c3cnc4ccn(C(=O)OC5CCCCC5)c4c3)ccc2n1)C1CC1` [Compound C17], 16 nM.

Consider `O=C(NC1CCOCC1)c1csc2ncc(-c3ccc4nc(NC(=O)C5CC5)cn4c3)cc12` [Compound C40, 5-[2-(cyclopropanecarbonylamino)imidazo[1,2-a]pyridin-6-yl]-N-tetrahydropyran-4-yl-thieno[2,3-b]pyridine-3-carboxamide], for which, in the test on HT29 cells, the IC50 is 60 nM. On the same count and under the same terms, to `O=C(NC1CCCCC1)c1csc2ncc(-c3ccc4nc(NC(=O)C5CC5)cn4c3)cc12` [Compound C41, N-cyclohexyl-5-[2-(cyclopropanecarbonylamino)imidazo[1,2-a]pyridin-6-yl]thieno[2,3-b]pyridine-3-carboxamide] belongs 2 nM; to `CCOC(=O)Nc1nc2ccc(-c3cnc4scc(C(=O)NC5CCCCC5)c4c3)cc2s1` [Compound C39, ethyl N-[6-[3-(cyclohexylcarbamoyl)thieno[2,3-b]pyridin-5-yl]-1,3-benzothiazol-2-yl]carbamate], 48 nM; to `O=C(NC1CCOCC1)c1cccc2ncc(-c3ccc4nc(NC(=O)C5CC5)sc4c3)cc12` [Compound C13, 3-[2-(cyclopropanecarbonylamino)-1,3-benzothiazol-6-yl]-N-tetrahydropyran-4-yl-quinoline-5-carboxamide], 13000 nM. Regarding `CCOC(=O)Nc1nc2ccc(-c3cnc4ccn(C(=O)OC5CCCCC5)c4c3)cc2s1` [Compound C34, cyclohexyl 6-[2-(ethoxycarbonylamino)-1,3-benzothiazol-6-yl]pyrrolo[3,2-b]pyridine-1-carboxylate], the IC50 in the test on HT29 cells was determined as 150 nM. `CCC(CC)NC(=O)c1csc2ncc(-c3ccc4nc(NC(=O)C5CC5)sc4c3)cc12` [Compound C37, 5-[2-(cyclopropanecarbonylamino)-1,3-benzothiazol-6-yl]-N-(1-ethylpropyl)thieno[2,3-b]pyridine-3-carboxamide]: in the test with HT29 cells, the IC50 was determined as 3.2 nM.

For `O=C(NC1CCOCC1)c1c[nH]c2ncc(-c3ccc4nc(NC(=O)C5CC5)sc4c3)cc12` [Compound C9, 5-[2-(cyclopropanecarbonylamino)-1,3-benzothiazol-6-yl]-N-tetrahydropyran-4-yl-1H-pyrrolo[2,3-b]pyridine-3-carboxamide], the IC50 in the test on HT29 cells came to 5200 nM. On to `CCC(=O)Nc1nc2ccc(-c3cnc4ccn(C(=O)OC5CCCCC5)c4c3)cc2s1` [Compound C26, cyclohexyl 6-[2-(propanoylamino)-1,3-benzothiazol-6-yl]pyrrolo[3,2-b]pyridine-1-carboxylate], for which the IC50 in the test on HT29 cells was found to be 50 nM. With `CNCC(C)OC(=O)n1ccc2ncc(-c3ccc4nc(NC(=O)C5CC5)sc4c3)cc21` (stereo not drawn) [Compound C36, [1-methyl-2-(methylamino)ethyl] 6-[2-(cyclopropanecarbonylamino)-1,3-benzothiazol-6-yl]pyrrolo[3,2-b]pyridine-1-carboxylate, hydrochloride salt], the IC50 in the test on HT29 cells stood at 16000 nM. The same measure, in the same setting: to `O=C(Nc1nc2ccc(-c3cnc4ccn(C(=O)NC5CCOCC5)c4c3)cc2s1)C1CC1` [Compound C21, 6-[2-(cyclopropanecarbonylamino)-1,3-benzothiazol-6-yl]-N-tetrahydropyran-4-yl-pyrrolo[3,2-b]pyridine-1-carboxamide] belongs 22 nM; to `CNCC(C)NC(=O)c1nsc2ncc(-c3ccc4nc(NC(=O)C5CC5)sc4c3)cc12` (stereo not drawn) [Compound C32, 5-[2-(cyclopropanecarbonylamino)-1,3-benzothiazol-6-yl]-N-[1-methyl-2-(methylamino)ethyl]isothiazolo[5,4-b]pyridine-3-carboxamide], 1400 nM; to `O=C(NC1CCOCC1)c1nsc2ncc(-c3ccc4nc(NC(=O)C5CC5)cn4c3)cc12` [Compound C35, 5-[2-(cyclopropanecarbonylamino)imidazo[1,2-a]pyridin-6-yl]-N-tetrahydropyran-4-yl-isothiazolo[5,4-b]pyridine-3-carboxamide], 160 nM.

As a reminder, the IC50 is the concentration at which inhibition is half-maximal.
